According to US8034827B2, “Phenanthridine derivatives as bradykinin antagonists” (Richter Gegeon Nyrt., priority 2005, dated 2011):
Structures can show the parent of a compound that is named as a salt.

Tests used:
[1] = target: T1, human recombinant bradykinin1 receptors (Homo sapiens, UniProt P46663); assay: Human recombinant bradykinin B1 receptor binding; details: CHO cell membranes, [3H]-[Des-Arg10] Kallidin radioligand
T1 construct: host or cells: CHO cells
T1 sequence (P46663 1-353): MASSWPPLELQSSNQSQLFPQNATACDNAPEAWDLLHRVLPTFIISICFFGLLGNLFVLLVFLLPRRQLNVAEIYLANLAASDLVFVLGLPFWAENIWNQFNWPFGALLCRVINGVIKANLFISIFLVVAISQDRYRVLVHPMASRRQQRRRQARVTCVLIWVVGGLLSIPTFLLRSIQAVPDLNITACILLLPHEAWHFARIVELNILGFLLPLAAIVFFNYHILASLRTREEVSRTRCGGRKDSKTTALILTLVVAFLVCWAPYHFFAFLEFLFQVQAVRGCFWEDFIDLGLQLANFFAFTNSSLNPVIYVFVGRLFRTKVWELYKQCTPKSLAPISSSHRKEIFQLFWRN
Experimental: Receptor Binding Assays 1. Human Recombinant Bradykinin B1 Receptor Binding
Binding assays were carried out on human recombinant bradykinin1 receptors (expressed in CHO cells) according to the Euroscreen Technical Data Sheet (Cat. No.: ES-091). 20 μg protein/tube was incubated with [3,4-prolyl-3,4-^3H(N)]-[Des-Arg^10] Kallidin as radioligand. Non specific binding was determined in the presence of 10 μM Lys-des-Arg^9-Bradykinin. The final incubation volume was 250 μl. Samples were incubated for 15 min. at 25° C. then were rapidly vacuum filtered through GF/B filters presoaked for at least 1 h in 0.5% PEI. Radioactivity was determined by liquid scintillation spectroscopy.

[2] = target: T2, recombinant human B1 receptors (Homo sapiens, UniProt P46663); assay: Antagonist potency by measurement of cytosolic calcium ion concentration in CHO-B1 cells (agonist LysDABK); format: cell-based; details: inhibition of LysDABK (EC80)-evoked [Ca2+]i elevation, fluo-4, read-out: B1 func.
T2 construct: host or cells: CHO (CHO-B1)
T2 sequence (P46663 1-353): T1 sequence (P46663 1-353)
Experimental: Assessment of Antagonist Potency at B1 and B2 Receptors In Vitro by Measurement of Cytosolic Calcium Ion Concentration with a Plate Reader Fluorimeter in Cells Expressing Recombinant Human B1 or B2 Receptors
Chinese hamster ovary (CHO) cells stably expressing recombinant human B1 (CHO-B1, Euroscreen) or B2 (CHO-B2, Perkin-Elmer) receptors were cultured in Dulbecco's Modified Eagle's Medium (DMEM) containing 10% Fetal Calf Serum (FCS), 100 U/ml penicillin, 0.1 mg/ml streptomycin, 0.25 μg/ml amphotericin B, 1% Minimum Essential Medium Eagle (MEM), non essential amino acid solution, 600 μg/ml G418, 1% pyruvate (for the B2 cell line). Cells were kept at 37° C. in a humidified incubator in an atmosphere of 5% CO2/95% air and were passaged 1:4 three times a week. Cells were plated at 1.5-2.5×10^4 cell/well on standard 96-well microplates, measurements of cytosolic calcium ion concentration ([Ca^2+]i) were carried out 1-2 days after cell plating.
Measurements of [Ca^2+]i were carried out on CHO-B1 and CHO-B2 cells stably expressing human B1 and B2 receptors, respectively. Cells were grown in standard 96-well microplates and before the measurement were loaded with a fluorescent Ca^2+-sensitive dye, fluo-4/AM (2 μM): after removing the culture medium the dye was added to the cells (dissolved in assay buffer: 145 mM NaCl, 5 mM KCl, 2 mM MgCl2, 2 mM CaCl2, 10 mM HEPES, 20 mM D-glucose, 2 mM probenecid, 100 μl/well) and cells were incubated at 37° C. in a humidified incubator in an atmosphere of 5% CO2/95% air for 40-120 min. To stop dye loading cells were washed twice with assay buffer. After washing, various concentrations of the test compounds (diluted in extracellular medium from a DMSO stock solution, final DMSO concentration was <0.1%) or buffer were added to each well depending on the experimental setup. After incubation at 37° C. for 20-25 min. baseline and agonist-evoked changes of [Ca^2+]i were measured column by column with a plate reader fluorimeter (Fluoroskan Ascent, Labsystems). Excitation and detection of emission was carried out from the bottom of the plate. Filters used for Fluo-4: excitation filter −485 nm, emission filter −538 nm. The whole measurement process was performed at 37° C. and was controlled by custom software. Inhibitory potency of the test compounds was assessed by measuring the reduction in the agonist-evoked [Ca^2+]i-elevation in the presence of different concentrations of the compounds. The agonists were LysDABK for CHO-B1, and bradykinin for CHO-B2 cells. Agonists were applied at an EC80 concentration, the EC80-values were derived from daily determined dose-response curves. Fluorescence data were expressed as ΔF/F (fluorescence change normalized to baseline). All treatments on a single plate were measured in multiple wells. Data from all wells with the same treatment were averaged and the average values were used for analysis. Inhibitory potency of a compound at a single concentration point was expressed as percent inhibition of the control agonist response. Sigmoidal concentration-inhibition curves were fitted to the data (derived from at least three independent experiments) and IC50-values were determined as the concentration that produces half of the maximal inhibition caused by the compound.

Compound: NCc1ccc(CC(NC(=O)CC(NS(=O)(=O)c2ccc3ccccc3c2)c2ccccc2)C(=O)N2CCCC2)cc1 (racemic) [Example 70003770, (±)-N-[1-(4-aminomethyl-benzyl)-2-oxo-2-pyrrolidin-1-yl-ethyl]-3-(naphthalene-2-sulfonylamino)-3-phenyl-propionamide, reference compound]
- Ki [1]: > 500 nM
- IC50 [2]: > 500 nM

Compound: CCCN1C(=O)C(NC(=O)Nc2ccc(N3CCC(N4CCCCC4)CC3)cc2)N=C(c2ccc(C)cc2)c2ccccc21 (racemic) [Example 70004387, (±)-N-[4-(1,4′-bipiperidin)-1′-yl-phenyl]-N′-[2,3-dihydro-5-(4-methyl-phenyl)-2-oxo-1-propyl-1H-1,4-benzodiazepin-3-yl]-urea, reference compound]
- Ki [1]: < 100 nM
- IC50 [2]: 100 to 500 nM

Compound: O=C(CC1c2cc(F)ccc2-c2ccccc2N1S(=O)(=O)c1ccc(Cl)c(Cl)c1)NCCc1ccc(C2=NCCN2)cc1 (stereo not drawn) [Example 1, 2-[5-(3,4-Dichloro-benzenesulfonyl)-8-fluoro-5,6-dihydro-phenanthridin-6-yl]-N-{2-[4-(4,5-dihydro-1H-imidazol-2-yl)-phenyl]-ethyl}-acetamide hydrochloride]
- Ki [1]: < 100 nM
- IC50 [2]: < 100 nM

Compound: O=C(CC1c2ccccc2-c2ccccc2N1S(=O)(=O)c1ccc(Cl)c(Cl)c1)NCCc1ccc(C2=NCCN2)cc1 (stereo not drawn) [Example 2, 2-[5-(3,4-Dichloro-benzenesulfonyl)-5,6-dihydro-phenanthridin-6-yl]-N-{2-[4-(4,5-dihydro-1H-imidazol-2-yl)-phenyl]-ethyl}-acetamide hydrochloride]
- Ki [1]: < 100 nM
- IC50 [2]: < 100 nM

Compound: O=C(CC1c2ccccc2-c2ccccc2N1S(=O)(=O)c1ccc(Cl)c(Cl)c1)NCCN1CCN(c2ccncc2)CC1 (stereo not drawn) [Example 3]
- Ki [1]: < 100 nM
- IC50 [2]: < 100 nM

Compound: O=C(CC1c2ccccc2-c2ccccc2N1S(=O)(=O)c1ccc(Cl)c(Cl)c1)N[C@H]1CC[C@H](CCN2CCCC2)CC1 (stereo partly drawn) [Example 4, trans-2-[5-(3,4-Dichloro-benzenesulfonyl)-5,6-dihydro-phenanthridin-6-yl]-N-[4-(2-pyrrolidin-1-yl-ethyl)-cyclohexyl]-acetamide]
- Ki [1]: < 100 nM
- IC50 [2]: < 100 nM

Compound: O=C(CC1c2ccccc2-c2ccccc2N1S(=O)(=O)c1ccc(Cl)c(Cl)c1)N1CCC(Cc2ccc(C3=NCCN3)cc2)CC1 (stereo not drawn) [Example 5, 2-[5-(3,4-Dichloro-benzenesulfonyl)-5,6-dihydro-phenanthridin-6-yl]-1-{4-[4-(4,5-dihydro-1H-imidazol-2-yl)-benzyl]-piperidin-1-yl}-ethanone]
- Ki [1]: < 100 nM
- IC50 [2]: < 100 nM

Compound: O=C(CC1c2ccccc2-c2ccccc2N1S(=O)(=O)c1ccc(Cl)c(Cl)c1)N1CCC(Cc2ccc(C3=NCCCN3)cc2)CC1 (stereo not drawn) [Example 6, 2-[5-(3,4-Dichloro-benzenesulfonyl)-5,6-dihydro-phenanthridin-6-yl]-1-{4-[4-(1,4,5,6-tetrahydro-pyrimidin-2-yl)-benzyl]-piperidin-1-yl}-ethanone]
- Ki [1]: < 100 nM
- IC50 [2]: < 100 nM

Compound: O=C(CC1c2ccccc2-c2ccccc2N1S(=O)(=O)c1ccc(Cl)c(Cl)c1)Nc1ccc(N2CCC(N3CCCCC3)CC2)cc1 (stereo not drawn) [Example 8, N-(4-[1,4′]Bipiperidinyl-1-yl-phenyl)-2-[5-(3,4-dichloro-benzenesulfonyl)-5,6-dihydro-phenanthridin-6-yl]-acetamide]
- Ki [1]: < 100 nM
- IC50 [2]: 100 to 500 nM

Compound: O=C(CC1c2ccccc2-c2ccccc2N1S(=O)(=O)c1ccc(Cl)c(Cl)c1)NCCCN1CCN(c2ccncc2)CC1 (stereo not drawn) [Example 9, 2-[5-(3,4-Dichloro-benzenesulfonyl)-5,6-dihydro-phenanthridin-6-yl]-N-[3-(4-pyridin-4-yl-piperazin-1-yl)-propyl]-acetamide]
- Ki [1]: < 100 nM
- IC50 [2]: < 100 nM

Compound: Cc1ccc(S(=O)(=O)N2c3ccccc3-c3ccccc3C2CC(=O)NCCc2ccc(C3=NCCN3)cc2)cc1 (stereo not drawn) [Example 14, N-{2-[4-(4,5-Dihydro-1H-imidazol-2-yl)-phenyl]-ethyl}-2-[5-(toluene-4-sulfonyl)-5,6-dihydro-phenanthridin-6-yl]-acetamide hydrochloride]
- Ki [1]: < 100 nM
- IC50 [2]: < 100 nM

Compound: Cc1cc(C)c(S(=O)(=O)N2c3ccccc3-c3ccccc3C2CC(=O)NCCc2ccc(C3=NCCN3)cc2)c(C)c1 (stereo not drawn) [Example 15, N-{2-[4-(4,5-Dihydro-1H-imidazol-2-yl)-phenyl]-ethyl}-2-[5-(2,4,6-trimethyl-benzenesulfonyl)-5,6-dihydro-phenanthridin-6-yl]-acetamide hydrochloride]
- Ki [1]: < 100 nM
- IC50 [2]: < 100 nM

Compound: COc1ccc(S(=O)(=O)N2c3ccccc3-c3ccccc3C2CC(=O)NCCc2ccc(C3=NCCN3)cc2)cc1 (stereo not drawn) [Example 16, N-{2-[4-(4,5-Dihydro-1H-imidazol-2-yl)-phenyl]-ethyl}-2-[5-(4-methoxy-benzenesulfonyl)-5,6-dihydro-phenanthridin-6-yl]-acetamide hydrochloride]
- Ki [1]: < 100 nM
- IC50 [2]: < 100 nM

Compound: COc1cccc2c1-c1ccccc1N(S(=O)(=O)c1ccc(Cl)c(Cl)c1)C2CC(=O)NCCc1ccc(C2=NCCN2)cc1 (stereo not drawn) [Example 17, 2-[5-(3,4-Dichloro-benzenesulfonyl)-10-methoxy-5,6-dihydro-phenanthridin-6-yl]-N-{2-[4-(4,5-dihydro-1H-imidazol-2-yl)-phenyl]-ethyl}-acetamide hydrochloride]
- Ki [1]: < 100 nM
- IC50 [2]: < 100 nM

Compound: O=C(CC1c2cc(F)cc(F)c2-c2ccccc2N1S(=O)(=O)c1ccc(Cl)c(Cl)c1)NCCc1ccc(C2=NCCN2)cc1 (stereo not drawn) [Example 18, 2-[5-(3,4-Dichloro-benzenesulfonyl)-8,10-difluoro-5,6-dihydro-phenanthridin-6-yl]-N-{2-[4-(4,5-dihydro-1H-imidazol-2-yl)-phenyl]-ethyl}-acetamide hydrochloride]
- Ki [1]: < 100 nM
- IC50 [2]: < 100 nM

Compound: CC(=O)c1ccc2c(c1)C(CC(=O)NCCc1ccc(C3=NCCN3)cc1)N(S(=O)(=O)c1ccc(Cl)c(Cl)c1)c1ccccc1-2 (stereo not drawn) [Example 19, 2-[8-Acetyl-5-(3,4-dichloro-benzenesulfonyl)-5,6-dihydro-phenanthridin-6-yl]-N-{2-[4-(4,5-dihydro-1H-imidazol-2-yl)-phenyl]-ethyl}-acetamide hydrochloride]
- Ki [1]: < 100 nM
- IC50 [2]: 100 to 500 nM

Compound: N=C(N)c1ccc(CCNC(=O)CC2c3ccccc3-c3ccccc3N2S(=O)(=O)c2ccc(Cl)c(Cl)c2)cc1 (stereo not drawn) [Example 20, N-[2-(4-Carbamimidoyl-phenyl)-ethyl]-2-[5-(3,4-dichloro-benzenesulfonyl)-5,6-dihydro-phenanthridin-6-yl]-acetamide]
- Ki [1]: < 100 nM
- IC50 [2]: < 100 nM

Compound: COc1cccc2c1-c1ccccc1N(S(=O)(=O)c1ccc(Cl)c(Cl)c1)C2CC(=O)N[C@H]1CC[C@H](CCN2CCCC2)CC1 (stereo partly drawn) [Example 21, trans-2-[5-(3,4-Dichloro-benzenesulfonyl)-10-methoxy-5,6-dihydro-phenanthridine-6-yl]-N-[4-(2-pyrrolidin-1-ylethyl)-cyclohexyl]-acetamide]
- Ki [1]: < 100 nM
- IC50 [2]: < 100 nM
